Paper PMC9972953, “Thermophilic Carboxylesterases from Hydrothermal Vents of the Volcanic Island of Ischia Active on Synthetic and Biobased Polymers and Mycotoxins” (Applied and Environmental Microbiology, 2023)

Experiments:
Format in all cases: biochemical, uncultured Chloroflexota bacterium
Details in all cases: pH 9.0, 30°C
IS12 [1] = tested on: T1, IS12; assay: spectrophotometric release of p-nitrophenol, […] nm
T1 construct: N-terminal 6xHis tag (pET-46 Ek/LIC), E. coli BL21(DE3); dimer in solution

IS10 [2] = tested on: T2, IS10; assay: spectrophotometric release of p-nitrophenol, […] nm
T2 construct: N-terminal 6xHis tag (pET-46 Ek/LIC), E. coli BL21(DE3); dimer in solution

IS10 [3] = tested on: T2, IS10; assay: spectrophotometric release of α-naphthol, […] nm
IS12 [4] = tested on: T1, IS12; assay: spectrophotometric release of α-naphthol, […] nm

Row | Structure (SMILES) | Km (IS12 [1]) [µM] | Km (IS10 [2]) [µM] | KM (IS10 [3]) [µM] | Km (IS10 [3]) [µM] | Km (IS12 [4]) [µM]
1 | CC(=O)Oc1ccc([N+](=O)[O-])cc1 [pNP-acetate] | 220 ± 50 | 50 ± 10 | – | – | –
2 | CCCC(=O)Oc1ccc([N+](=O)[O-])cc1 [pNP-butyrate] | 80 ± 10 | 60 ± 10 | – | – | –
3 | CCCCCC(=O)Oc1ccc([N+](=O)[O-])cc1 [pNP-hexanoate] | 90 ± 10 | 40 ± 10 | – | – | –
4 | CCCC(=O)Oc1cccc2ccccc12 [αN-butyrate] | – | – | 120 ± 40 | – | –
5 | CCC(=O)Oc1cccc2ccccc12 [αN-propionate] | – | – | – | 60 ± 20 | 690 ± 190
